These results are taken from PubChem BioAssay (NCI).

Assay in all cases: growth of human tumour cells (NCI), 48 h
The subject of experiment [1] is RXF 393 renal.
For experiment [2], the system named is SF-268 CNS.
Experiment [3] concerns COLO 205 colon.
In experiment [4] the test system is HL-60(TB) leukemia.
In experiment [5] the test system is SK-MEL-2 melanoma.
In experiment [6] the test system is MALME-3M melanoma.
Experiment [7] has as its system U251 CNS.
Experiment [8] relates to HCT-116 colon.
The subject of experiment [9] is KM12 colon.
For experiment [10], the system named is HOP-62 NSCLC.

Several values for one entry are separate records, joined by “and”; a condition that tells them apart may be missing. Identical values can stand only once.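 Where inhibition never reached the appropriate level, the endpoint shown equals the highest concentration tested. Otherwise, values were interpolated linearly from a five-concentration, 48-hour dose response in 96-well plates. Abbreviation: GI50, concentration required for 50% inhibition of growth. TGI denotes the concentration required for complete inhibition of growth.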

As for `c1ccc2[nH]c3[nH]c4[nH]c5ccccc5[nH]c4[nH]c3[nH]c2c1`, the TGI in experiment [1], in [2], in [3], in experiment [4], in experiment [5] and in experiment [6] was above 100 µM throughout. The TGI in experiment [7], in experiment [8], in [9] and in [10] was above 100 µM throughout.
With `CC(NC(=O)/C(C#N)=C/c1ccc2[nH]ccc2c1)c1ccccc1` (configuration not stated), the TGI was determined as 34.5 µM in experiment [1]; 42.6 µM in experiment [2]; 30.7 µM in experiment [3]; 54.8 µM in [4]; 39.9 µM in [5]; 71.2 µM in experiment [6]. Besides, the TGI in experiment [7] was 29.4 µM; in experiment [8], 28.1 µM; in experiment [9], 32.2 µM; in experiment [10], 33.4 µM.
Consider `NC(=O)c1csc(CCCCCCc2nc(C(N)=O)cs2)n1`, for which the TGI in experiment [1], in experiment [2], in experiment [3], in experiment [4], in [5] and in experiment [6] was above 100 µM throughout. For the same compound, the TGI in [7] is above 65.1 µM; in experiment [8] it was above 100 µM; in [9], above 100 µM; in experiment [10], above 100 µM.
Take `CC(=O)NCC1(c2ccccc2)CCN(CC2COc3ccccc3O2)CC1` (configuration not stated): the TGI in experiment [1], in [2], in [3], in experiment [4], in [5] and in [6] was above 100 µM each time. For the same compound, the TGI in experiment [7], in experiment [8], in experiment [9] and in experiment [10] was above 100 µM in each case.
For `C[C@@H]1C[C@@H](O)[C@@]2(O)C13CC(=O)OC(C3)[C@@H](C)[C@@]2(C)CO` (some centres not stated), the TGI in [1], in experiment [2], in experiment [3], in [4], in [5] and in [6] was above 100 µM throughout. The TGI in experiment [7], in experiment [8], in [9] and in experiment [10] was above 100 µM in each case.
In the case of `COc1ccc(-c2c3c(n(C4OC(CO)C(O)C(O)C4O)c(=S)c2C#N)CC(C)(C)CC3=O)cc1` (configuration not stated), the TGI in experiment [1], in [2], in experiment [3], in experiment [4], in [5] and in [6] was above 100 µM in each case. Also, the TGI in experiment [7], in experiment [8], in [9] and in experiment [10] was above 100 µM in each case.
Regarding `CS(=O)(=O)c1[nH]nc2[nH]c(=O)[nH]c(=O)c12`, the TGI in [1], in experiment [2], in experiment [3], in experiment [4], in [5] and in experiment [6] was above 10 µM throughout. Further, the TGI in experiment [7], in [8], in experiment [9] and in [10] was above 10 µM in each case.
As for `CC1(C)CCCCCCCCCC(C)(CCCO)C1=O` (configuration not stated), the TGI in experiment [1] was found to be 34.4 µM; in [2], 33.4 µM; in experiment [3] it was 30.1 µM; in [4] it was 45 µM; in [5] it was 28.9 µM; in [6], 30.6 µM. In addition, the TGI stood at 30.4 µM in experiment [7], 31.2 µM in experiment [8], 33 µM in experiment [9] and 30.3 µM in experiment [10].
For `COc1ccc2c(c1)N(C(C)=O)CN1C(=O)CCC21` (configuration not stated), the TGI in [1], in [2], in experiment [3], in experiment [4], in experiment [5] and in experiment [6] was above 100 µM each time. In addition, the TGI in [7], in [8], in [9] and in experiment [10] was above 100 µM each time.
As to `CN(C)c1ccc(/C=C2\N=C(N/N=C/c3ccccc3)NC2=O)cc1`, the TGI is 70.4 µM in experiment [1]; above 100 µM in [2]; above 100 µM in experiment [3]; above 100 µM in experiment [4]; above 100 µM in [5]; above 100 µM in experiment [6]. The TGI in experiment [7], in experiment [8], in experiment [9] and in experiment [10] was above 100 µM each time.
Take `O=c1oc2ccccc2cc1-c1nnc(-c2ccccc2)s1`: the TGI was above 54.6 µM in [1]; above 100 µM in experiment [2]; above 100 µM in experiment [3]; 3.5 µM in experiment [4]; above 100 µM in experiment [5]; above 100 µM in experiment [6]. Moreover, the TGI was 26.4 µM in experiment [7], above 100 µM in experiment [8], 36.2 µM in experiment [9] and above 57.1 µM in experiment [10].
Turning to `CC(=O)OCC1OC(n2c3c(c(-c4ccc(Cl)cc4)c(C#N)c2=S)C(=O)CC(C)(C)C3)C(OC(C)=O)C(OC(C)=O)C1OC(C)=O` (configuration not stated), the TGI in experiment [1] is 68.8 µM; in experiment [2], 29 µM; in [3] it was above 62.8 µM; in [4], above 61.1 µM; in experiment [5], 46.4 µM; in experiment [6], above 100 µM. Further, the TGI in experiment [7] was 50.3 µM; in experiment [8], above 100 µM; in [9], above 77.4 µM; in experiment [10], above 100 µM.
For the compound `CC1=CC2(O)OC3(CC2=C(C)C)C(C)CCC13` (configuration not stated), the TGI in experiment [1], in experiment [2], in experiment [3], in [4], in experiment [5] and in experiment [6] was above 100 µM in each case. Further, the TGI in [7], in [8], in experiment [9] and in experiment [10] was above 100 µM each time.
In the case of `CN(C)CCOC1(Cc2ccc(Cl)cc2Cl)CCC(C(C)(C)C)CC1` (configuration not stated), the GI50 in experiment [1] was 1.68 µM; in experiment [2], 2.28 µM; in [4], 1.45 µM and 2.08 µM. Also, the TGI was 3.11 µM and 3.28 µM in experiment [1]; 7.89 µM and 6.85 µM in experiment [2]; 3.28 µM and 3.23 µM in experiment [3]; 3.61 µM and 3.92 µM in experiment [4]; 3.89 µM and 3.33 µM in experiment [5]; 4.41 µM and 3.24 µM in experiment [6]. Further, the TGI is 2.9 µM and 3.45 µM in experiment [7]; 3.13 µM and 3.45 µM in [8]; 3.27 µM and 3.36 µM in experiment [9]; 3.06 µM and 3.32 µM in [10].
Regarding `COC(=O)[C@H]1C=C[C@@H](C)n2c(=O)c3ccccc3c(=O)n21`, the TGI in experiment [1], in [2], in [3], in experiment [4], in experiment [5] and in experiment [6] was above 100 µM in each case. In addition, the TGI in experiment [7], in experiment [8], in experiment [9] and in experiment [10] was above 100 µM in each case.
For `C=C1CC2(OC1=O)c1ccccc1C=Cc1ccccc12`, the TGI in [1] stood at 8.12 µM; in experiment [2], 17.4 µM; in [3] it was 5.82 µM; in experiment [4] it was 4.86 µM; in [5], 16.5 µM; in experiment [6], 9.71 µM. In addition, the TGI in experiment [7] came out at 15.5 µM; in [8] it was 5.4 µM; in experiment [9], 12.3 µM; in [10], 24.9 µM.
`CC1=CCC[C@@](C)(O)[C@@H]2C[C@H]3C(CSc4ccccc4)C(=O)O[C@H]3[C@@H](O2)[C@H](C)CCC1` (some centres not stated): the TGI was 30.4 µM in experiment [1]; above 100 µM in [2]; 40.4 µM in experiment [3]; above 100 µM in experiment [4]; 32.3 µM in experiment [5]; 32.1 µM in experiment [6]. Further, the TGI in [7] is 66.8 µM; in [8], above 100 µM; in experiment [9], 22.6 µM; in experiment [10], 34.5 µM.
With `CCOC(=O)c1c2c(c(O)c3ccccc3c(O)n(-c3ccc(C)cc3)c1C)C(=O)C=CC2=O`, the TGI in experiment [1] is 55.7 µM; in [2], above 100 µM; in experiment [3] it was 48.5 µM; in [4] it was 51.4 µM; in experiment [5], 64.7 µM; in experiment [6], 37.4 µM. Also, the TGI in [7] worked out at 52.9 µM; in [8] it was 38.3 µM; in experiment [9], 81.7 µM; in experiment [10], 61.7 µM.
Turning to `CN(C)c1ncnc2c1ncn2C1C=CC(COS(N)(=O)=O)C1` (configuration not stated), the TGI in [1], in experiment [2], in [3], in [4], in experiment [5] and in experiment [6] was above 100 µM throughout. Besides, the TGI in experiment [7], in experiment [8], in [9] and in [10] was above 100 µM throughout.
With `C#CCCOC1(OC)N=NC(C)(C)O1` (configuration not stated), the TGI in experiment [1], in experiment [2], in [3], in experiment [4], in experiment [5] and in experiment [6] was above 100 µM throughout. Also, the TGI in [7], in [8], in experiment [9] and in [10] was above 100 µM throughout.
Consider `Cn1cnc2c(OCC3CCCCC3)nc(N)nc21`, for which the TGI in experiment [1], in experiment [2], in experiment [3], in experiment [4], in [5] and in experiment [6] was above 100 µM each time. Further, the TGI in experiment [7], in experiment [8], in experiment [9] and in experiment [10] was above 100 µM each time.
As for `CC1(C)OC(=O)C(C)(C)OC1=O`, the TGI in [1], in experiment [2], in experiment [3], in experiment [4], in experiment [5] and in [6] was above 100 µM each time. Besides, the TGI in experiment [7], in [8], in [9] and in experiment [10] was above 100 µM throughout.
As to `O=C1C(Cl)C(c2ccc(Cl)cc2)N1n1cnc2ccccc2c1=O` (configuration not stated), the TGI in experiment [1], in experiment [2], in experiment [3], in experiment [4], in experiment [5] and in experiment [6] was above 100 µM in each case. The TGI in [7], in experiment [8], in experiment [9] and in [10] was above 100 µM in each case.
Take `C[C@]12CC(c3ccccc3O1)C(C#N)C(=O)N2` (some centres not stated): the TGI in [1], in experiment [2], in [3], in experiment [4], in [5] and in experiment [6] was above 100 µM throughout. For the same compound, the TGI in experiment [7], in experiment [8], in experiment [9] and in experiment [10] was above 100 µM throughout.
`COc1cc2c(cc1OC)C1C(O)C(OC)C=C3CC[N+](C)(C2)C31` (configuration not stated): the TGI in experiment [1], in [2], in experiment [3], in [4], in [5] and in experiment [6] was above 100 µM throughout. The TGI in [7], in experiment [8], in [9] and in [10] was above 100 µM in each case.
As to `CN(C)CCCSc1c2ccccc2nc2cc(NCC(=O)Nc3ccccc3-c3ccccc3NC(=O)CNc3ccc4c(SCCCN(C)C)c5ccccc5nc4c3)ccc12`, the TGI was above 100 µM in experiment [1]; above 100 µM in experiment [2]; above 100 µM in experiment [3]; 50.3 µM in experiment [4]; above 100 µM in [5]; above 100 µM in experiment [6]. For the same compound, the TGI in experiment [7], in [8], in experiment [9] and in experiment [10] was above 100 µM throughout.
In the case of `NC12CC3CC(C1)CC(Cl)(C3)C2`, the TGI in [1], in [3], in experiment [4], in experiment [5], in experiment [6] and in experiment [7] was above 100 µM each time. Moreover, the TGI in [8], in [9] and in [10] was above 100 µM each time.
